Experimental data as given in ChEMBL document CHEMBL4325829, “Design and Synthesis of Tubulin and Histone Deacetylase Inhibitor Based on iso-Combretastatin A-4” (J Med Chem, 2018).
Converted amounts (≈) assume the structure as drawn. The source made the active and inactive calls. The rule behind the calls is not given here.

Assays:
HCT-116 = assay: Antiproliferative activity against human HCT116 cells after 72 hrs by MTS assay; type: functional; details: Homo sapiens, HCT-116, 72 h
[1] = Inhibition of sheep brain tubulin polymerization assessed as reduction in rate of microtubule assembly by DAPI-fluorescence based assay; design: species or system Ovis aries
Ovis aries = species on record: Ovis aries; assay: Inhibition of sheep brain tubulin polymerization assessed as reduction in rate of microtubule assembly at 200 uM by DAPI-fluorescence based assay
Histone deacetylase 8 = molecular target: T1, Histone deacetylase 8 (Homo sapiens, UniProt Q9BY41); assay: Inhibition of human recombinant HDAC8 after 30 mins using fluorogenic substrate by fluorimetric assay; details: read-out: IC50
T1 sequence (Q9BY41 whole entry): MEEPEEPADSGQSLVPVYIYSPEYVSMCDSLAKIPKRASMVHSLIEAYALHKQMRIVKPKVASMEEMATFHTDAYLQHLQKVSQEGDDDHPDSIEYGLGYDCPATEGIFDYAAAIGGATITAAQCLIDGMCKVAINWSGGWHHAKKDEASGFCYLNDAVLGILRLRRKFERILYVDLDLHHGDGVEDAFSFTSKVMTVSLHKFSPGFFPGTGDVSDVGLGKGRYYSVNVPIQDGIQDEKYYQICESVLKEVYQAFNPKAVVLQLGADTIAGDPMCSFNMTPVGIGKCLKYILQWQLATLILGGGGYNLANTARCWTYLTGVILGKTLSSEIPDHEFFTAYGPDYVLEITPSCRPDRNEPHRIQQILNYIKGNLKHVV

Histone deacetylase 11 = molecular target: T2, Histone deacetylase 11 (Homo sapiens, UniProt Q96DB2); assay: Inhibition of human recombinant HDAC11 after 30 mins using fluorogenic substrate by fluorimetric assay; details: read-out: IC50
T2 sequence (Q96DB2 whole entry): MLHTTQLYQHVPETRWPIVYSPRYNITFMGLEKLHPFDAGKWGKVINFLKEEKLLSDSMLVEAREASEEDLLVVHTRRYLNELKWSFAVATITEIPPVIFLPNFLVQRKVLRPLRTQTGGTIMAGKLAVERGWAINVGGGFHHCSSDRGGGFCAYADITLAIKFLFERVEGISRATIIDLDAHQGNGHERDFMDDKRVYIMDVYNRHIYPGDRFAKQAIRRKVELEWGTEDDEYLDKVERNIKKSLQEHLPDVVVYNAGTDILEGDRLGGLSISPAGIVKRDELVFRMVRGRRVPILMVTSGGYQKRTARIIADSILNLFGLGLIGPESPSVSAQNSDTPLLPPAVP

[2] = molecular target: T3, Protein deacetylase HDAC6 (Homo sapiens, UniProt Q9UBN7)
T3 sequence (Q9UBN7 whole entry): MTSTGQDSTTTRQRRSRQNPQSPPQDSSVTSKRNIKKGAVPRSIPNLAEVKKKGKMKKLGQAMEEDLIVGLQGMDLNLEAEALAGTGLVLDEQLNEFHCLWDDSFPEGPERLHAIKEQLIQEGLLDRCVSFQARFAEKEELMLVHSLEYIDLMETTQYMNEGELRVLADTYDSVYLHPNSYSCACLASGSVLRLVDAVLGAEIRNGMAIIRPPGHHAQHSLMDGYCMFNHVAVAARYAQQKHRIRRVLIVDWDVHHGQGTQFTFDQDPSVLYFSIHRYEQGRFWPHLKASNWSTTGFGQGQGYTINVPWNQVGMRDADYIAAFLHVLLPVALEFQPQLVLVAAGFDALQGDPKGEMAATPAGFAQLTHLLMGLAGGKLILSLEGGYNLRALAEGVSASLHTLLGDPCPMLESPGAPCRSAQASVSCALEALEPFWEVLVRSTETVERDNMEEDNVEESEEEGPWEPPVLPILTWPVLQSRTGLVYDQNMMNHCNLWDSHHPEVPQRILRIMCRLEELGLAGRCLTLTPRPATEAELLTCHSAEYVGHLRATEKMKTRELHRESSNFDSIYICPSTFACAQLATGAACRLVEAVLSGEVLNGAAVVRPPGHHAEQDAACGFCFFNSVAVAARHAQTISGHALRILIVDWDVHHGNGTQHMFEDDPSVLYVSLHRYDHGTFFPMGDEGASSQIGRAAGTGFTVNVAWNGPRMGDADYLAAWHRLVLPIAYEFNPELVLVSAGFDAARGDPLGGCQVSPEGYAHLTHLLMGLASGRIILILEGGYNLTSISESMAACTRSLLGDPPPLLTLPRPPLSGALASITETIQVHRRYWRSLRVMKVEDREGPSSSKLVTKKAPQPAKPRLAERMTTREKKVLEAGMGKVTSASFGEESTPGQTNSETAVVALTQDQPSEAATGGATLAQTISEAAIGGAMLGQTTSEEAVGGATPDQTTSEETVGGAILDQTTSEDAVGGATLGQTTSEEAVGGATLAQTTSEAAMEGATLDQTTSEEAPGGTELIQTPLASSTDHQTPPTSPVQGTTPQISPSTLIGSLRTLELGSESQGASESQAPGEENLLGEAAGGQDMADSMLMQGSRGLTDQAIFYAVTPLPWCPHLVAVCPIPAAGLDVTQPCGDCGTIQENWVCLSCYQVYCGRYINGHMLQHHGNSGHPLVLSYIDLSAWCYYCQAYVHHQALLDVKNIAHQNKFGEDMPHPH
Description: Inhibition of human recombinant HDAC6 after 30 mins using fluorogenic substrate by fluorimetric assay

[3] = Induction of apoptosis in human BL2 cells assessed as early apoptotic cells at 10 nM after 48 hrs by annexin V-FITC/propidium iodide double staining-based flow cytometry (reference value: 8.2%); type: functional
[4] = Induction of apoptosis in human BL2 cells assessed as late apoptotic cells at 10 nM after 48 hrs by annexin V-FITC/propidium iodide double staining-based flow cytometry (reference value: 2.1%); type: functional
A549 = assay: Antiproliferative activity against human A549 cells after 72 hrs by MTS assay; type: functional; details: Homo sapiens, A549, 72 h
K562 = assay: Antiproliferative activity against human K562 cells after 72 hrs by MTS assay; type: functional; details: Homo sapiens, K562, 72 h
K-562R = assay: Antiproliferative activity against human K562R cells after 72 hrs by MTS assay; type: functional; details: Homo sapiens, K-562R, 72 h
PC-3 = assay: Antiproliferative activity against human PC3 cells after 72 hrs by MTS assay; type: functional; details: Homo sapiens, PC-3, 72 h
U-87 MG = assay: Antiproliferative activity against human U87 cells after 72 hrs by MTS assay; type: functional, U-87MG ATCC; details: Homo sapiens, U-87 MG, 72 h
MCF7 = assay: Antiproliferative activity against human MCF7 cells after 72 hrs by MTS assay; type: functional; details: Homo sapiens, MCF7, 72 h
MIA PaCa-2 = assay: Antiproliferative activity against human MIAPaCa2 cells after 72 hrs by MTS assay; type: functional; details: Homo sapiens, MIA PaCa-2, 72 h
BXPC-3 = assay: Antiproliferative activity against human BxPC3 cells after 72 hrs by MTS assay; type: functional; details: Homo sapiens, BXPC-3, 72 h
HT-29 = assay: Antiproliferative activity against human HT-29 cells after 72 hrs by MTS assay; type: functional; details: Homo sapiens, HT-29, 72 h
[5] = molecular target: T4, Histone deacetylase 8 (Homo sapiens) (UniProt Q9BY41); assay: Inhibition of HDAC8 in human HT-29 cells assessed as acetylated SMC3 levels at 25 uM after 6 hrs by Western blot analysis relative to control; type: cell-based
T4 sequence (whole entry): T1 sequence (Q9BY41 whole entry)

[6] = molecular target: T4, Histone deacetylase 8 (Homo sapiens); assay: Inhibition of HDAC8 in human HT-29 cells assessed as acetylated SMC3 levels at 25 uM after 24 hrs by Western blot analysis relative to control; type: cell-based
[7] = molecular target: T5, Protein deacetylase HDAC6 (Homo sapiens) (UniProt Q9UBN7); assay: Inhibition of HDAC6 in human HT-29 cells assessed as acetylated alpha-tubulin levels at 25 uM after 6 hrs by Western blot analysis relative to control; type: cell-based
T5 sequence (whole entry): T3 sequence (Q9UBN7 whole entry)

[8] = molecular target: T5, Protein deacetylase HDAC6 (Homo sapiens); assay: Inhibition of HDAC6 in human HT-29 cells assessed as acetylated alpha-tubulin levels at 25 uM after 24 hrs by Western blot analysis relative to control; type: cell-based
[9] = molecular target: T6, Histone deacetylase (Homo sapiens) (UniProt Q13547+O15379+Q9UBN7+Q92769+Q9UQL6+Q8WUI4+Q9BY41+Q96DB2+P56524+Q9UKV0+Q969S8); assay: Inhibition of HDAC in human HT-29 cells assessed as phosphorylated gamma-H2AX levels at 302 nM after 3 days by Western blot analysis relative to control; type: cell-based
[10] = molecular target: T6, Histone deacetylase (Homo sapiens); assay: Inhibition of HDAC in human HT-29 cells assessed as phosphorylated gamma-H2AX levels at 605 nM after 3 days by Western blot analysis relative to control; type: cell-based
[11] = molecular target: T6, Histone deacetylase (Homo sapiens); assay: Inhibition of HDAC in human HT-29 cells assessed as gamma-H2AX phosphorylation after 3 days by Western blot analysis; type: cell-based
[12] = Aqueous solubility of the compound; type: physicochemical; details: water
[13] = Lipophilicity, log P of the compound; type: physicochemical; details: octanol/water; read-out: logP

## C=C(c1cc(OC)c(OC)c(OC)c1)c1ccc2c(ccn2CCC(=O)NO)c1
HCT-116
  GI50: 393 nM
[1]
  IC50: 22 µM

## C=C(c1ccc(OC)c(OCC(=O)OCC)c1)c1cc(OC)c(OC)c(OC)c1
HCT-116
  GI50: 150 nM
[1]
  IC50: 5 µM

## C=C(c1ccc(OC)c(OCCCC(=O)OCC)c1)c1cc(OC)c(OC)c(OC)c1
HCT-116
  GI50: 1000 nM
Ovis aries
  inhibition: inactive

## C=C(c1ccc(OC)c(OCCCCCCC(=O)OCC)c1)c1cc(OC)c(OC)c(OC)c1
HCT-116
  GI50: 3000 nM
Ovis aries
  inhibition: inactive

## C=C(c1cc(OC)c(OC)c(OC)c1)c1ccc2c(c1)cc(C(=O)NO)n2C
HCT-116
  GI50: 36 nM
[1]
  IC50: 81 µM

## C=C(c1cc(OC)c(OC)c(OC)c1)c1ccc2c(c1)c(/C=C/C(=O)NO)cn2C
HCT-116
  GI50: 14 nM
[1]
  IC50: 3.7 µM
Histone deacetylase 8
  IC50: 240 nM
Histone deacetylase 11
  IC50: 5 µM
[2]
  IC50: 6.9 µM

## C=C(c1ccc(OC)c(OCCCCCCC(=O)NO)c1)c1cc(OC)c(OC)c(OC)c1
HCT-116
  GI50: 2500 nM
Ovis aries
  inhibition: inactive

## O=C(CCCCCCC(=O)Nc1ccccc1)NO [VORINOSTAT]
[3]
  Activity: 6.7%
[4]
  Activity: 1.8%

## C=C(c1cc(OC)c(OC)c(OC)c1)c1ccc(OC)c(/C=C/C(=O)NO)n1
HCT-116
  GI50: 37.2 nM
[1]
  IC50: 7.5 µM

## C=C(c1ccc(OC)c(C#CCCCC(=O)NO)c1)c1cc(OC)c(OC)c(OC)c1
HCT-116
  GI50: 372 nM
[1]
  IC50: 18 µM

## C=C(c1cc(OC)c(OC)c(OC)c1)c1ccc(OC)c(C(=O)NO)c1
HCT-116
  GI50: 233 nM
[1]
  IC50: 20 µM

## C=C(c1ccc(OC)c(OCCCC(=O)NO)c1)c1cc(OC)c(OC)c(OC)c1
HCT-116
  GI50: 500 nM
Ovis aries
  inhibition: inactive

## COc1ccc(Cn2ccc3ccc(C(=O)NO)cc32)cc1
HCT-116
  GI50: 2640 nM
A549
  GI50: > 20000 nM
K562
  GI50: 2010 nM
K-562R
  GI50: 2200 nM
PC-3
  GI50: 2660 nM
U-87 MG
  GI50: > 15000 nM
MCF7
  GI50: 2970 nM
MIA PaCa-2
  GI50: > 20000 nM
BXPC-3
  GI50: > 20000 nM
HT-29
  GI50: > 10000 nM
[5]
  fold change (FC): 3.1
[6]
  fold change (FC): 4.8
[7]
  fold change (FC): 0.5
[8]
  fold change (FC): 1.7

## C=C(c1ccc(OC)c(C#CCCC(=O)NO)c1)c1cc(OC)c(OC)c(OC)c1
HCT-116
  GI50: 8 nM
[1]
  IC50: 1.7 µM

## C=C(c1ccc(OC)c(C#CCCCC(=O)OCC)c1)c1cc(OC)c(OC)c(OC)c1
HCT-116
  GI50: 3000 nM
Ovis aries
  inhibition: inactive

## C=C(c1cc(OC)c(OC)c(OC)c1)c1ccc2c(c1)cc(/C=C/C(=O)NO)n2C
HCT-116
  GI50: 20 nM
[1]
  IC50: 5.4 µM
Histone deacetylase 8
  IC50: 6200 nM
[2]
  IC50: 3.8 µM

## C=C(c1cc(OC)c(OC)c(OC)c1)c1ccc(OC)c(C(=O)Nc2ccccc2N)c1
HCT-116
  GI50: 340 nM
Ovis aries
  inhibition: inactive

## C=C(c1ccc(OC)c(C#CCCC(=O)OCC)c1)c1cc(OC)c(OC)c(OC)c1
HCT-116
  GI50: 1000 nM
Ovis aries
  inhibition: inactive

## C=C(c1ccc(OC)c(OCC(=O)NO)c1)c1cc(OC)c(OC)c(OC)c1
HCT-116
  GI50: 22 nM
[1]
  IC50: 2.4 µM

## C=C(c1cc(OC)c(OC)c(OC)c1)c1ccc(OC)cc1/C=C/C(=O)NO
HCT-116
  GI50: 8 nM
[1]
  IC50: 2.1 µM
Histone deacetylase 8
  IC50: 60 nM
Histone deacetylase 11
  IC50: 8 µM
A549
  GI50: 22 nM
K562
  GI50: 20 nM
K-562R
  GI50: 80 nM
PC-3
  GI50: 28 nM
U-87 MG
  GI50: 11 nM
MCF7
  GI50: 17 nM
MIA PaCa-2
  GI50: 18 nM
BXPC-3
  GI50: 25 nM
HT-29
  GI50: 63.6 nM
[9]
  fold change (FC): 1.3
[10]
  fold change (FC): 2.9
[11]
  inhibition: Dose-dependent effect
[5]
  fold change (FC): 1.6
[6]
  fold change (FC): 2.7
[7]
  fold change (FC): 0.3
[8]
  fold change (FC): 0.9
[12]
  solubility: 88.3 µg/mL (≈ 229 µM)
[13]
  logP: 2.13
[2]
  IC50: 5 µM

## C=C(c1ccc(OC)c(/C=C/C(=O)OC)c1)c1cc(OC)c(OC)c(OC)c1
HCT-116
  GI50: 85 nM
[1]
  IC50: 4 µM

## C=C(c1cc(OC)c(OC)c(OC)c1)c1ccc2c(c1)c(C(=O)NO)cn2C
HCT-116
  GI50: 30 nM
[1]
  IC50: 7.3 µM
